Results published in the kinase profiling compilation of Christmann-Franck et al. (2016).

Legend:
Assay in all cases: KINOMEscan competition binding
Details in all cases: compound 2.0 µM
ACVR2A (human) = ACVR2A (human) (UniProt P27037)
BTK (human) = BTK (human) (UniProt Q06187)
CDK15 (human) = CDK15 (human) (UniProt Q96Q40)
CDK3 (human) = CDK3 (human) (UniProt Q00526)
CIT (human) = CIT (human) (UniProt O14578)
[1] = test system: EGFR (human), P00533 [A750P; 747-749 del]
EIF2AK1 (human) = EIF2AK1 (human) (UniProt Q9BQI3)
EPHB4 (human) = EPHB4 (human) (UniProt P54760)
ERBB2 (human) = ERBB2 (human) (UniProt P04626)
FES (human) = FES (human) (UniProt P07332)
[2] = test system: FGFR3 (human), P22607 [G697C]
[3] = test system: FLT3 (human), P36888 [D835Y]
GSK3A (human) = GSK3A (human) (UniProt P49840)
Chain of GSK3A (human) (P49840 whole entry, looked up): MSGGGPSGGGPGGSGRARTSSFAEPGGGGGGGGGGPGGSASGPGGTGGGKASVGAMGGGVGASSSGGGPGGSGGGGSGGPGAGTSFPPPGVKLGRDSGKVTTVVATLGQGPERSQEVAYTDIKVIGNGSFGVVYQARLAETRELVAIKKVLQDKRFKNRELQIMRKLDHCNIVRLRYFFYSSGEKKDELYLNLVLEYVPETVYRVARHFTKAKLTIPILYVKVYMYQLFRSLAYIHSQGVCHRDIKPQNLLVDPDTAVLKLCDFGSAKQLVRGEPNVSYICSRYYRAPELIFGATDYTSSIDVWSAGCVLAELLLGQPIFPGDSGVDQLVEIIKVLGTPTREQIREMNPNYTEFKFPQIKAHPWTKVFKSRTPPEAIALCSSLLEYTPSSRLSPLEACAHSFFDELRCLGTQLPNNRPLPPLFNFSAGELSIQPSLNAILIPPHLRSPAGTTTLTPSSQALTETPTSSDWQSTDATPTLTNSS

[4] = test system: KIT (human), P10721 [D816V]
LATS1 (human) = LATS1 (human) (UniProt O95835)
MAP4K3 (human) = MAP4K3 (human) (UniProt Q8IVH8)
MAPK12 (human) = MAPK12 (human) (UniProt P53778)
MTOR (human) = MTOR (human) (UniProt P42345)
MYLK2 (human) = MYLK2 (human) (UniProt Q9H1R3)
MYO3A (human) = MYO3A (human) (UniProt Q8NEV4)
NUAK2 (human) = NUAK2 (human) (UniProt Q9H093)
PAK6 (human) = PAK6 (human) (UniProt Q9NQU5)
PAK7 (human) = PAK7 (human) (UniProt Q9P286)
[5] = test system: PIK3CA (human), P42336 [E542K]
PIM2 (human) = PIM2 (human) (UniProt Q9P1W9)
PKN1 (human) = PKN1 (human) (UniProt Q16512)
Chain of PKN1 (human) (Q16512 whole entry, looked up): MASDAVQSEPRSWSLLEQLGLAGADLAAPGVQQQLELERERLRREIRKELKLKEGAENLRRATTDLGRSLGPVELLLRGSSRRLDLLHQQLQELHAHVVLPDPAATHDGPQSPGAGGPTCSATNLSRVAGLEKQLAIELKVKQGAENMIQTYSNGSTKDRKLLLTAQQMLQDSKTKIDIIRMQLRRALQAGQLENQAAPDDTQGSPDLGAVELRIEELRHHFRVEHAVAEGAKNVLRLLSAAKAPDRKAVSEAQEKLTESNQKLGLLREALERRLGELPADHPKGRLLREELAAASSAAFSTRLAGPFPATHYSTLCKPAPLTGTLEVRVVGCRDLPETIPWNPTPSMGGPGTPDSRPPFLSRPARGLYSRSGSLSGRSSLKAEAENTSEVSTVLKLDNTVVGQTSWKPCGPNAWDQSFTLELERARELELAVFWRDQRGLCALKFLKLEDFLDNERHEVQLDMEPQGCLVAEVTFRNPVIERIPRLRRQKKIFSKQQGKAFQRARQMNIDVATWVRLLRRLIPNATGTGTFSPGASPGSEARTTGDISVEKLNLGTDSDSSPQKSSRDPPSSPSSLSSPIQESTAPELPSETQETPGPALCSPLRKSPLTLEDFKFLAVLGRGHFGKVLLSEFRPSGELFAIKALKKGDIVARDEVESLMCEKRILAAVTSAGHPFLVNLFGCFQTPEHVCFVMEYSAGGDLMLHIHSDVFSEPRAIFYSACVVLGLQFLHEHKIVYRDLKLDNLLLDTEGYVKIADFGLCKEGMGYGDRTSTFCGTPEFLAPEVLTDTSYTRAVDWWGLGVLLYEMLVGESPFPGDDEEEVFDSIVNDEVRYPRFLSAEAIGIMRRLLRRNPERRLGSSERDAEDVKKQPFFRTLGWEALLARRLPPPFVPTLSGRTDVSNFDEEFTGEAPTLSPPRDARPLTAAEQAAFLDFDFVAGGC

PLK2 (human) = PLK2 (human) (UniProt Q9NYY3)
PRKD3 (human) = PRKD3 (human) (UniProt O94806)
[6] = test system: RET (human), P07949 [M918T]
ROCK2 (human) = ROCK2 (human) (UniProt O75116)
RPS6KA4 KD2 (human) = RPS6KA4 KD2 (human) (UniProt O75676)
SIK2 (human) = SIK2 (human) (UniProt Q9H0K1)
SLK (human) = SLK (human) (UniProt Q9H2G2)
SNRK (human) = SNRK (human) (UniProt Q9NRH2)
Chain of SNRK (human) (Q9NRH2 whole entry, looked up): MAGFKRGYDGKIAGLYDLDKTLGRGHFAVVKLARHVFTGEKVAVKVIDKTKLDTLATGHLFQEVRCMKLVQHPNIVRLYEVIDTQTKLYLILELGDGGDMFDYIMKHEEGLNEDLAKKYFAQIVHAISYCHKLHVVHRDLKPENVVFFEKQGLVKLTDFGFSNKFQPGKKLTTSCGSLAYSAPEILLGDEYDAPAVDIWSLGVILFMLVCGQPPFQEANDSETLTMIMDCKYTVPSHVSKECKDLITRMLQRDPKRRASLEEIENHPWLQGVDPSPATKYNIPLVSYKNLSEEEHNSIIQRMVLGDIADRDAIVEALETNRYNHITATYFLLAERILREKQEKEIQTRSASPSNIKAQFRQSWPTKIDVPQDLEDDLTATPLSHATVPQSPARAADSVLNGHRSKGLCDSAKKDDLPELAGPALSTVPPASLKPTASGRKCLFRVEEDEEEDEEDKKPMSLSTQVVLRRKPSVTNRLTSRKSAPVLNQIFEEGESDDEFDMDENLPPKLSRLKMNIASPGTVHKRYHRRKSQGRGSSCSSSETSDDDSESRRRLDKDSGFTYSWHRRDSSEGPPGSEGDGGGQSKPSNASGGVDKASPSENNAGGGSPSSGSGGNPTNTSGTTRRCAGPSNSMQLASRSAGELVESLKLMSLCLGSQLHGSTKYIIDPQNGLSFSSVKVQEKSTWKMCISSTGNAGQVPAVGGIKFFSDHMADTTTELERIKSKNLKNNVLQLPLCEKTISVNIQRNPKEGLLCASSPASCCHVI

STK11 (human) = STK11 (human) (UniProt Q15831)
Chain of STK11 (human) (Q15831 whole entry, looked up): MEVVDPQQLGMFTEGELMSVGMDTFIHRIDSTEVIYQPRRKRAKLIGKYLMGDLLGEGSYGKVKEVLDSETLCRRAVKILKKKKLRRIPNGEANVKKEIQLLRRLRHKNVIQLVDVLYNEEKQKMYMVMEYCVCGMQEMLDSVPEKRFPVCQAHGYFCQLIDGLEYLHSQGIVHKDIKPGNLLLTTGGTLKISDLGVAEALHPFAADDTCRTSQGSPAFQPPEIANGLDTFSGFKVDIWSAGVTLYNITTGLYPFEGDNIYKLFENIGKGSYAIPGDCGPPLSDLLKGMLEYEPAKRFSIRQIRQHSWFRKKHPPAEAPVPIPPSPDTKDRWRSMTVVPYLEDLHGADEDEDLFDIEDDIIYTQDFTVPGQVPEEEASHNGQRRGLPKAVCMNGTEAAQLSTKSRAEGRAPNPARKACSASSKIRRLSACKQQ

STK3 (human) = STK3 (human) (UniProt Q13188)
TAOK2 (human) = TAOK2 (human) (UniProt Q9UL54)
TEC (human) = TEC (human) (UniProt P42680)
Chain of TEC (human) (P42680 whole entry, looked up): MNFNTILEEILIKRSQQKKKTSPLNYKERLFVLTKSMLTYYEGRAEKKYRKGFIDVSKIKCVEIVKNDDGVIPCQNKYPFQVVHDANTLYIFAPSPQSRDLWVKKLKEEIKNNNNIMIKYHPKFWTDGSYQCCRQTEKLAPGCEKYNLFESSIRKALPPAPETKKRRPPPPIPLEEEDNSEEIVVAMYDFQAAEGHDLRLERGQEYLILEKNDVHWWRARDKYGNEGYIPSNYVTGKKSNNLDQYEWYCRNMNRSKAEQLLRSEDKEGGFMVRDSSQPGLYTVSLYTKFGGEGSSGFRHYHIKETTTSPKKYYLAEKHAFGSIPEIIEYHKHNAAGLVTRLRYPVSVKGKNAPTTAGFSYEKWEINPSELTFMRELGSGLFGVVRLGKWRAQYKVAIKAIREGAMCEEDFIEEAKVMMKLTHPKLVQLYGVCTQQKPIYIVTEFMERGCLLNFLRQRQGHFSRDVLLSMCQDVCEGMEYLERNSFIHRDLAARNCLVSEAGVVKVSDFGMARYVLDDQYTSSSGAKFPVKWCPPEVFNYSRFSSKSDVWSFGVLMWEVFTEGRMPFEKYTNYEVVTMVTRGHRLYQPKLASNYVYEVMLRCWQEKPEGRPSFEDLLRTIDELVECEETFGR

TEK (human) = TEK (human) (UniProt Q02763)
Chain of TEK (human) (Q02763 whole entry, looked up): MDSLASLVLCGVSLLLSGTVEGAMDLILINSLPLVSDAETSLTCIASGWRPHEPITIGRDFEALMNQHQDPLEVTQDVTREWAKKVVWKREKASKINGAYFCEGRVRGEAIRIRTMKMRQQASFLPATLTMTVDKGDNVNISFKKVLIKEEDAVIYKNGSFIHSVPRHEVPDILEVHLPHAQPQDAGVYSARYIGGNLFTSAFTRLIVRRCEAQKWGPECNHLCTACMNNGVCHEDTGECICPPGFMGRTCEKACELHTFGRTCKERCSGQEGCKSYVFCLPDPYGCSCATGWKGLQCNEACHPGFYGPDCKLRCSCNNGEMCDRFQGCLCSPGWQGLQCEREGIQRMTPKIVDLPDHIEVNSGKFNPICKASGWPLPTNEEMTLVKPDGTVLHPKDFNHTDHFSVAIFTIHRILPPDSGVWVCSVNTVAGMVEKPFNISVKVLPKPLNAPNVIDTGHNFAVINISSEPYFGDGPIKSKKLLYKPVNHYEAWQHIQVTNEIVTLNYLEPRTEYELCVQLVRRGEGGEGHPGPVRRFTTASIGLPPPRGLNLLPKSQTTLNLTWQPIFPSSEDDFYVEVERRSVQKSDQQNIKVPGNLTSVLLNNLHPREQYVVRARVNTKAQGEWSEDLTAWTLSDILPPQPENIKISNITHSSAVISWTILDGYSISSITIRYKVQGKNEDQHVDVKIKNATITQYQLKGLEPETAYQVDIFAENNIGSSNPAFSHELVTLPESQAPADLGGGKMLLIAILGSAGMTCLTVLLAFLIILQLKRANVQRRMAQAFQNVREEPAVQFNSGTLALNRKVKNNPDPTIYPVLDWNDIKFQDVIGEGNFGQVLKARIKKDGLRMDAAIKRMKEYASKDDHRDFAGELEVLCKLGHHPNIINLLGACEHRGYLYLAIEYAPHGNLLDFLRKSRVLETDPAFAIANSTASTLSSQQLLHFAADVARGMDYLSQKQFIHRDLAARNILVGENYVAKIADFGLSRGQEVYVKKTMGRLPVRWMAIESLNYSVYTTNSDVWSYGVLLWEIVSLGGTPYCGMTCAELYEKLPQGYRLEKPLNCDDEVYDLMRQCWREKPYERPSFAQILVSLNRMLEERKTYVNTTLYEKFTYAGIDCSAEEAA

TGFBR2 (human) = TGFBR2 (human) (UniProt P37173)
[7] = target: TYK2 JH1 catalytic (human) (UniProt P29597)
ULK3 (human) = ULK3 (human) (UniProt Q6PHR2)
WEE1 (human) = WEE1 (human) (UniProt P30291)
Chain of WEE1 (human) (P30291 whole entry, looked up): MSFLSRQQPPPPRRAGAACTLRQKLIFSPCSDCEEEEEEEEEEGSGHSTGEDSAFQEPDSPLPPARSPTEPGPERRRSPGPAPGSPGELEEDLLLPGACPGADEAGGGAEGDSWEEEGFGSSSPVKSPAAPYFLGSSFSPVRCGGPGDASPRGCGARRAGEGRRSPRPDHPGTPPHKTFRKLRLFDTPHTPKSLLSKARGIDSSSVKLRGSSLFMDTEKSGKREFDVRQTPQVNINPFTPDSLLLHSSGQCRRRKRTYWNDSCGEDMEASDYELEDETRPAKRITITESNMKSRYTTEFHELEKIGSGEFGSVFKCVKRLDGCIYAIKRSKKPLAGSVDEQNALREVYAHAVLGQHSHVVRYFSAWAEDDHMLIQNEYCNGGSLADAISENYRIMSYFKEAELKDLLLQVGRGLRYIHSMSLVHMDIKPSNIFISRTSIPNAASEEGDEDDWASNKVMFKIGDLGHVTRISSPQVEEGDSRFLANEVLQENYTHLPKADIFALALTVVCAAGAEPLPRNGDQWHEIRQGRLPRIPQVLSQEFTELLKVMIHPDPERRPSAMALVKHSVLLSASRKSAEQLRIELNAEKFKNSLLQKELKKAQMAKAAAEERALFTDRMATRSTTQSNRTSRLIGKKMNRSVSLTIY

Q: Which results are given for `N#Cc1ccc2ncnc(NCCc3ccc4ccccc4c3)c2c1`?
A: kinase still bound, per cent of control (ACVR2A (human)): 100%; kinase still bound, per cent of control (BTK (human)): 86%; kinase still bound, per cent of control (CDK15 (human)): 100%; kinase still bound, per cent of control (CDK3 (human)): 100%; kinase still bound, per cent of control (CIT (human)): 91%; kinase still bound, per cent of control [1]: 83%; kinase still bound, per cent of control (EIF2AK1 (human)): 100%; kinase still bound, per cent of control (EPHB4 (human)): 100%; kinase still bound, per cent of control (ERBB2 (human)): 94%; kinase still bound, per cent of control (FES (human)): 100%; kinase still bound, per cent of control [2]: 100%; kinase still bound, per cent of control [3]: 94%; kinase still bound, per cent of control (GSK3A (human)): 100%; kinase still bound, per cent of control [4]: 85%; kinase still bound, per cent of control (LATS1 (human)): 93%; kinase still bound, per cent of control (MAP4K3 (human)): 100%; kinase still bound, per cent of control (MAPK12 (human)): 100%; kinase still bound, per cent of control (MTOR (human)): 80%; kinase still bound, per cent of control (MYLK2 (human)): 99%; kinase still bound, per cent of control (MYO3A (human)): 100%; kinase still bound, per cent of control (NUAK2 (human)): 77%; kinase still bound, per cent of control (PAK6 (human)): 80%; kinase still bound, per cent of control (PAK7 (human)): 100%; kinase still bound, per cent of control [5]: 84%; kinase still bound, per cent of control (PIM2 (human)): 89%; kinase still bound, per cent of control (PKN1 (human)): 100%; kinase still bound, per cent of control (PLK2 (human)): 98%; kinase still bound, per cent of control (PRKD3 (human)): 99%; kinase still bound, per cent of control [6]: 89%; kinase still bound, per cent of control (ROCK2 (human)): 92%; kinase still bound, per cent of control (RPS6KA4 KD2 (human)): 90%; kinase still bound, per cent of control (SIK2 (human)): 100%; kinase still bound, per cent of control (SLK (human)): 73%; kinase still bound, per cent of control (SNRK (human)): 36%; kinase still bound, per cent of control (STK11 (human)): 100%; kinase still bound, per cent of control (STK3 (human)): 74%; kinase still bound, per cent of control (TAOK2 (human)): 83%; kinase still bound, per cent of control (TEC (human)): 100%; kinase still bound, per cent of control (TEK (human)): 100%; kinase still bound, per cent of control (TGFBR2 (human)): 92%; kinase still bound, per cent of control [7]: 93%; kinase still bound, per cent of control (ULK3 (human)): 100%; kinase still bound, per cent of control (WEE1 (human)): 88%
